Reference: the kinase profiling compilation of Christmann-Franck et al. (2016)

Key:
Assay in all cases: radiometric filter-binding kinase assay
CDK2 CCNA2 (human) = CDK2 CCNA2 (human) (UniProt P20248+P24941)
PAK4 (human) = PAK4 (human) (UniProt O96013)
MAP3K7 TAB1 (human) = MAP3K7 TAB1 (human) (UniProt Q15750+O43318)
PKN2 (human) = PKN2 (human) (UniProt Q16513)
EPHB1 (human) = EPHB1 (human) (UniProt P54762)
SRC (human) = SRC (human) (UniProt P12931)
EPHB3 (human) = EPHB3 (human) (UniProt P54753)
MYLK (human) = MYLK (human) (UniProt Q15746)
[1] = test system: AKT1 (human), P31749 [S473D]
IKBKB (human) = IKBKB (human) (UniProt O14920)
CSK (human) = CSK (human) (UniProt P41240)
[2] = test system: PAK2 (human), Q13177 [T402E]
TTK (human) = TTK (human) (UniProt P33981)
MARK2 (human) = MARK2 (human) (UniProt Q7KZI7)
LCK (mouse) = conditions: accession and sequence are those of the human protein
RPS6KA3 KD1 KD2 (human) = RPS6KA3 KD1 KD2 (human) (UniProt P51812)
EPHA2 (human) = EPHA2 (human) (UniProt P29317)
CHEK2 (human) = CHEK2 (human) (UniProt O96017)
TBK1 (human) = TBK1 (human) (UniProt Q9UHD2)
NUAK1 (human) = NUAK1 (human) (UniProt O60285)
EPHB2 (human) = EPHB2 (human) (UniProt P29323)
AURKB (human) = AURKB (human) (UniProt Q96GD4)
TAOK1 (human) = TAOK1 (human) (UniProt Q7L7X3)
MAP3K11 (human) = MAP3K11 (human) (UniProt Q16584)
PAK6 (human) = PAK6 (human) (UniProt Q9NQU5)
MAPK10 (human) = MAPK10 (human) (UniProt P53779)
EPHA4 (human) = EPHA4 (human) (UniProt P54764)
MAPK8 (human) = MAPK8 (human) (UniProt P45983)
GCK (human) = GCK (human) (UniProt Q12851)
MINK1 (human) = MINK1 (human) (UniProt Q8N4C8)
CHEK1 (human) = CHEK1 (human) (UniProt O14757)
DYRK3 (human) = DYRK3 (human) (UniProt O43781)
ROCK2 (rat) = conditions: accession and sequence are those of the human protein
MAP2K1 (human) = MAP2K1 (human) (UniProt Q02750)
CaMK1 (human) = CaMK1 (human) (UniProt Q14012)
MST4 (human) = MST4 (human) (UniProt Q9P289)

Chain of PAK2 (human), Q13177 [T402E] (Q13177 whole entry T402E, looked up): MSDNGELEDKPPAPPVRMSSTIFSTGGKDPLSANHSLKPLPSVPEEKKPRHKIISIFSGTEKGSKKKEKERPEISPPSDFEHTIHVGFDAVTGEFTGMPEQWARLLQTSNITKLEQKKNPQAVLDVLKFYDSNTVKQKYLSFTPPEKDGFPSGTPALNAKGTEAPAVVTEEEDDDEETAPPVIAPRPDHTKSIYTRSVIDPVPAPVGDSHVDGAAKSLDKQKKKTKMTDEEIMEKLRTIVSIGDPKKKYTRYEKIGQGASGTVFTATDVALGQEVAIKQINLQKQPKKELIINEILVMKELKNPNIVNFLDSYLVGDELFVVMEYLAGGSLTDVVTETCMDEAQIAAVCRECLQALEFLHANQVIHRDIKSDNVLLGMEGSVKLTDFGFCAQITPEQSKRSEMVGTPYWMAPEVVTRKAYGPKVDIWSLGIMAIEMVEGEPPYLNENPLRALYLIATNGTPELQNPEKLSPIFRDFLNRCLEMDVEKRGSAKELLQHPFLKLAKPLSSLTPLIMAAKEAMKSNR
Chain of EPHB3 (human) (P54753 whole entry, looked up): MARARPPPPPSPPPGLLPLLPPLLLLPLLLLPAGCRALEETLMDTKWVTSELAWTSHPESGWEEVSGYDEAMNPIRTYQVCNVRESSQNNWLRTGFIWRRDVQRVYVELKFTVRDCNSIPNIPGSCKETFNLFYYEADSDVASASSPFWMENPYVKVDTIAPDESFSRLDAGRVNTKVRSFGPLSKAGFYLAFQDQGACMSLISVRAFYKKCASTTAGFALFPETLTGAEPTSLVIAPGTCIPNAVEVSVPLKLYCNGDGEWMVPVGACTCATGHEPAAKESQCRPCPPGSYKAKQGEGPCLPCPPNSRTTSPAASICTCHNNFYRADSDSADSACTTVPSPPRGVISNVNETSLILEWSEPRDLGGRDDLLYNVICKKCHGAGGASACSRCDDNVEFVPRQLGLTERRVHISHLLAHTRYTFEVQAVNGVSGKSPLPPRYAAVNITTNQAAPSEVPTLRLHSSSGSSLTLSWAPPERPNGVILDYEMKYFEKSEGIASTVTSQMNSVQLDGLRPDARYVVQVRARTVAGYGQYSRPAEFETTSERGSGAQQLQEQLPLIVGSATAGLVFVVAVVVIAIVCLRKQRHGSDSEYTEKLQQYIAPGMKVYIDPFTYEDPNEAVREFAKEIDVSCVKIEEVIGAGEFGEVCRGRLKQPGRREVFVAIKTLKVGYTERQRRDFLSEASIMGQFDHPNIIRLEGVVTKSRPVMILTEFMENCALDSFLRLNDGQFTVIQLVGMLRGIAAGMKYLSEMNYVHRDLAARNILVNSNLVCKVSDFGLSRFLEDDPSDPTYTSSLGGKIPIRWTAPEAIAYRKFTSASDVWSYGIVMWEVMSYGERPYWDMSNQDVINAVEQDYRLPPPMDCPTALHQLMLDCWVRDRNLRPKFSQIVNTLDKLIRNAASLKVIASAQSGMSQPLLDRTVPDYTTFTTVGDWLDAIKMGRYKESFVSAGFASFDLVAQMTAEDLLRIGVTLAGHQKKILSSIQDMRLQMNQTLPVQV
Chain of PAK6 (human) (Q9NQU5 whole entry, looked up): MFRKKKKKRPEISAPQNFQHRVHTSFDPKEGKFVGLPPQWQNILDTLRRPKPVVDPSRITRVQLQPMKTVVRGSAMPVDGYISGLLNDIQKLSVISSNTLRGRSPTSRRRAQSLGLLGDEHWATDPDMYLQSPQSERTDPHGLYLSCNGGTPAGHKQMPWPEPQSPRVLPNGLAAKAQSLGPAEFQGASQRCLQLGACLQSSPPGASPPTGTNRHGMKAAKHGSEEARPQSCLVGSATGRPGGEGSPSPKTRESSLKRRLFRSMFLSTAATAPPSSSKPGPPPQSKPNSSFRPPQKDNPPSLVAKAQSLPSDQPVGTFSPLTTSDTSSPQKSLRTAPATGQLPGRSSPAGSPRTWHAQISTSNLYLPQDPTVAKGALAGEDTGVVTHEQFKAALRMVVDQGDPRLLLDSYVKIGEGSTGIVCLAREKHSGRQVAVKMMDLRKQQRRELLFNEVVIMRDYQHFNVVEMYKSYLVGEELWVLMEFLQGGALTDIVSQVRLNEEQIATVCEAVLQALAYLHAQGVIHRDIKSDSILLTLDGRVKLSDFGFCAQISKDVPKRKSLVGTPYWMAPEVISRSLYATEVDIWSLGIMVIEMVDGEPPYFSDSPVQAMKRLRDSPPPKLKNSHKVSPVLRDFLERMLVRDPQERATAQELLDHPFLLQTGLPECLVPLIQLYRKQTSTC
Chain of MAPK8 (human) (P45983 whole entry, looked up): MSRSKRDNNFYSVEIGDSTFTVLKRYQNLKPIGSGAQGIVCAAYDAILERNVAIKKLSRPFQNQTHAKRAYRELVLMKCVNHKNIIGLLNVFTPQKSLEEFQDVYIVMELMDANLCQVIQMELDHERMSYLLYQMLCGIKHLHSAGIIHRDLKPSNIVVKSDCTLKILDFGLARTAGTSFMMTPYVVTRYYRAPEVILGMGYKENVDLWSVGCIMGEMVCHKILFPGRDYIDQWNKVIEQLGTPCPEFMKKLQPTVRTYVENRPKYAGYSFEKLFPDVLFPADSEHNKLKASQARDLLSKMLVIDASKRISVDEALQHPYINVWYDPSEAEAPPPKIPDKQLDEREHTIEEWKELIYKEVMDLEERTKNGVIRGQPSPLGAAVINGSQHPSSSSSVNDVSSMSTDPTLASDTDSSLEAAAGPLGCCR
Chain of MINK1 (human) (Q8N4C8 whole entry, looked up): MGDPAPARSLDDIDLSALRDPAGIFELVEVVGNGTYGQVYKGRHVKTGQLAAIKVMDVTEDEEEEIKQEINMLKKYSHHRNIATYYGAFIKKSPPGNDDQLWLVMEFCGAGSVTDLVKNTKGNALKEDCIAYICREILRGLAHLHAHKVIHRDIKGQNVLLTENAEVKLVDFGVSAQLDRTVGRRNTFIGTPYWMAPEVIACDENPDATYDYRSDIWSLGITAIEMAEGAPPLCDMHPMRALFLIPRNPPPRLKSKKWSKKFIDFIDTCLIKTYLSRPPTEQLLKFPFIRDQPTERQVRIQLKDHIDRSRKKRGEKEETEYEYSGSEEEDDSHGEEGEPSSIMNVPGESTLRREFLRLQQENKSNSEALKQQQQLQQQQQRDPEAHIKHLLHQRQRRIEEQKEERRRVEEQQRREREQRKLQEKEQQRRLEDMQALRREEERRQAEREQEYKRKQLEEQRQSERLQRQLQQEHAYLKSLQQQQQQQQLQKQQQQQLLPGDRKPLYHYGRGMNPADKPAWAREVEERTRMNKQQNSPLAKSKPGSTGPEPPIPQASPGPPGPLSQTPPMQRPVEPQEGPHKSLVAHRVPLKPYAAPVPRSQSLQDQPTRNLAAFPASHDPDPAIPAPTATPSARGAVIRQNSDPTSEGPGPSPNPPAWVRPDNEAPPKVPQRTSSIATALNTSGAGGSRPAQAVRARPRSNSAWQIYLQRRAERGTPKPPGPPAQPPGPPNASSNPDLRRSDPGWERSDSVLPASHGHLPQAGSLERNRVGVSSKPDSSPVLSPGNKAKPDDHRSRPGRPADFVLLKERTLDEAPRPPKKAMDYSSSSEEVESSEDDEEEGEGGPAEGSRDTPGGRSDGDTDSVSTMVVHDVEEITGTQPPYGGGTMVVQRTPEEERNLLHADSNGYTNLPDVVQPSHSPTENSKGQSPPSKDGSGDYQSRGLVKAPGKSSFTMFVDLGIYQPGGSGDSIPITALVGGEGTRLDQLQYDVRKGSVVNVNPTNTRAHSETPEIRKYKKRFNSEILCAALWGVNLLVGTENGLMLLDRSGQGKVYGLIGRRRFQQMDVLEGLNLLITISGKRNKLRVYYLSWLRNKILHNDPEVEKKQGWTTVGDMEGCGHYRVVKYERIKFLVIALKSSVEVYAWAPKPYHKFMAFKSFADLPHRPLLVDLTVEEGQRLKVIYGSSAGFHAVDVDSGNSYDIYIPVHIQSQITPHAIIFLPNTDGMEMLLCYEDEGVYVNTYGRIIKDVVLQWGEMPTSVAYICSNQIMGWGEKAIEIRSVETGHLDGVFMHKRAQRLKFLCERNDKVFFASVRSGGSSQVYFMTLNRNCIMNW
Chain of EPHA4 (human) (P54764 whole entry, looked up): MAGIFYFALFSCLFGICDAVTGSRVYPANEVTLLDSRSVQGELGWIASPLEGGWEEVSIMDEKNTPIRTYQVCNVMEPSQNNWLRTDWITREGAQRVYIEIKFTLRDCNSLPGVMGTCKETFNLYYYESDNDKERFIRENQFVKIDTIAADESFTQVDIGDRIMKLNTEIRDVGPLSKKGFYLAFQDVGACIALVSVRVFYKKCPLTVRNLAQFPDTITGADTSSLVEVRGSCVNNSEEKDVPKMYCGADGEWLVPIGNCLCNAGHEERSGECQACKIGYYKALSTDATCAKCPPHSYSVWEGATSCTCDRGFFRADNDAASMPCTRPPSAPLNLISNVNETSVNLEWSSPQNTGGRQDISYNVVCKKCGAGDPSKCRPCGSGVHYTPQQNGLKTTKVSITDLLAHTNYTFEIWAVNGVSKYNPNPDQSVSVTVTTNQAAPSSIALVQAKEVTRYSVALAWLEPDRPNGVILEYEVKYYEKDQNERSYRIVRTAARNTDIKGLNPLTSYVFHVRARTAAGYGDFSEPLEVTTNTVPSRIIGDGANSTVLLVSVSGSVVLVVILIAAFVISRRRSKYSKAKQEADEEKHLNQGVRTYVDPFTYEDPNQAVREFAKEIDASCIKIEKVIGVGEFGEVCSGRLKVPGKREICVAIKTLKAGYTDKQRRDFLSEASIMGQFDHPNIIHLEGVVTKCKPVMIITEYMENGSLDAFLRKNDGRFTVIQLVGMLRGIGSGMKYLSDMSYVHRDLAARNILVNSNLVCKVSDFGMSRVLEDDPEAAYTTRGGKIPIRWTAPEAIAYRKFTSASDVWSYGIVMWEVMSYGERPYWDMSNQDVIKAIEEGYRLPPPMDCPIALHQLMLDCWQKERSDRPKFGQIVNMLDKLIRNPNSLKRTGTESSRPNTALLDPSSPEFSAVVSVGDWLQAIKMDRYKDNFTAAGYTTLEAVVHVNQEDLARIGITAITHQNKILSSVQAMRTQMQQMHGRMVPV

- residual activity (CDK2 CCNA2 (human); compound 0.1 µM): 35%
- residual activity (CDK2 CCNA2 (human); compound 1.0 µM): 15%
- residual activity (CDK2 CCNA2 (human); compound 10.0 µM): 3%
- residual activity (PAK4 (human); compound 0.1 µM): 69%
- residual activity (PAK4 (human); compound 1.0 µM): 67%
- residual activity (PAK4 (human); compound 10.0 µM): 20%
- residual activity (MAP3K7 TAB1 (human); compound 0.1 µM): 107%
- residual activity (MAP3K7 TAB1 (human); compound 1.0 µM): 84%
- residual activity (MAP3K7 TAB1 (human); compound 10.0 µM): 27%
- residual activity (PKN2 (human); compound 0.1 µM): 80%
- residual activity (PKN2 (human); compound 1.0 µM): 78%
- residual activity (PKN2 (human); compound 10.0 µM): 32%
- residual activity (EPHB1 (human); compound 0.1 µM): 53%
- residual activity (EPHB1 (human); compound 1.0 µM): 36%
- residual activity (SRC (human); compound 0.1 µM): 22%
- residual activity (SRC (human); compound 1.0 µM): 20%
- residual activity (SRC (human); compound 10.0 µM): 2%
- residual activity (EPHB3 (human); compound 0.1 µM): 22%
- residual activity (EPHB3 (human); compound 1.0 µM): 20%
- residual activity (EPHB3 (human); compound 10.0 µM): 6%
- residual activity (MYLK (human); compound 0.1 µM): 51%
- residual activity (MYLK (human); compound 1.0 µM): 43%
- residual activity (MYLK (human); compound 10.0 µM): 5%
- residual activity ([1]; compound 0.1 µM): 105%
- residual activity ([1]; compound 1.0 µM): 86%
- residual activity ([1]; compound 10.0 µM): 53%
- residual activity (IKBKB (human); compound 0.1 µM): 107%
- residual activity (IKBKB (human); compound 1.0 µM): 92%
- residual activity (IKBKB (human); compound 10.0 µM): 84%
- residual activity (CSK (human); compound 0.1 µM): 103%
- residual activity (CSK (human); compound 1.0 µM): 88%
- residual activity (CSK (human); compound 10.0 µM): 9%
- residual activity ([2]; compound 0.1 µM): 44%
- residual activity ([2]; compound 1.0 µM): 44%
- residual activity ([2]; compound 10.0 µM): 16%
- residual activity (TTK (human); compound 0.1 µM): 75%
- residual activity (TTK (human); compound 1.0 µM): 73%
- residual activity (TTK (human); compound 10.0 µM): 42%
- residual activity (MARK2 (human); compound 0.1 µM): 81%
- residual activity (MARK2 (human); compound 1.0 µM): 87%
- residual activity (MARK2 (human); compound 10.0 µM): 44%
- residual activity (LCK (mouse); compound 0.1 µM): 43%
- residual activity (LCK (mouse); compound 1.0 µM): 13%
- residual activity (LCK (mouse); compound 10.0 µM): 5%
- residual activity (RPS6KA3 KD1 KD2 (human); compound 0.1 µM): 67%
- residual activity (RPS6KA3 KD1 KD2 (human); compound 1.0 µM): 64%
- residual activity (RPS6KA3 KD1 KD2 (human); compound 10.0 µM): 18%
- residual activity (EPHA2 (human); compound 0.1 µM): 46%
- residual activity (EPHA2 (human); compound 1.0 µM): 36%
- residual activity (EPHA2 (human); compound 10.0 µM): 13%
- residual activity (CHEK2 (human); compound 0.1 µM): 20%
- residual activity (CHEK2 (human); compound 1.0 µM): 18%
- residual activity (CHEK2 (human); compound 10.0 µM): 4%
- residual activity (TBK1 (human); compound 0.1 µM): 87%
- residual activity (TBK1 (human); compound 1.0 µM): 78%
- residual activity (TBK1 (human); compound 10.0 µM): 93%
- residual activity (NUAK1 (human); compound 0.1 µM): 40%
- residual activity (NUAK1 (human); compound 1.0 µM): 37%
- residual activity (NUAK1 (human); compound 10.0 µM): 7%
- residual activity (EPHB2 (human); compound 0.1 µM): 11%
- residual activity (EPHB2 (human); compound 1.0 µM): 4%
- residual activity (EPHB2 (human); compound 10.0 µM): 4%
- residual activity (AURKB (human); compound 0.1 µM): 65%
- residual activity (AURKB (human); compound 1.0 µM): 42%
- residual activity (AURKB (human); compound 10.0 µM): 7%
- residual activity (TAOK1 (human); compound 0.1 µM): 42%
- residual activity (TAOK1 (human); compound 1.0 µM): 33%
- residual activity (MAP3K11 (human); compound 0.1 µM): 84%
- residual activity (MAP3K11 (human); compound 1.0 µM): 77%
- residual activity (MAP3K11 (human); compound 10.0 µM): 51%
- residual activity (PAK6 (human); compound 0.1 µM): 71%
- residual activity (PAK6 (human); compound 1.0 µM): 72%
- residual activity (PAK6 (human); compound 10.0 µM): 27%
- residual activity (MAPK10 (human); compound 0.1 µM): 94%
- residual activity (MAPK10 (human); compound 1.0 µM): 107%
- residual activity (MAPK10 (human); compound 10.0 µM): 54%
- residual activity (EPHA4 (human); compound 0.1 µM): 22%
- residual activity (EPHA4 (human); compound 1.0 µM): 29%
- residual activity (EPHA4 (human); compound 10.0 µM): 0%
- residual activity (MAPK8 (human); compound 0.1 µM): 98%
- residual activity (MAPK8 (human); compound 1.0 µM): 99%
- residual activity (MAPK8 (human); compound 10.0 µM): 53%
- residual activity (GCK (human); compound 0.1 µM): 101%
- residual activity (GCK (human); compound 1.0 µM): 93%
- residual activity (GCK (human); compound 10.0 µM): 33%
- residual activity (MINK1 (human); compound 0.1 µM): 69%
- residual activity (MINK1 (human); compound 1.0 µM): 64%
- residual activity (MINK1 (human); compound 10.0 µM): 8%
- residual activity (CHEK1 (human); compound 0.1 µM): 54%
- residual activity (CHEK1 (human); compound 1.0 µM): 53%
- residual activity (CHEK1 (human); compound 10.0 µM): 52%
- residual activity (DYRK3 (human); compound 0.1 µM): 89%
- residual activity (DYRK3 (human); compound 1.0 µM): 78%
- residual activity (DYRK3 (human); compound 10.0 µM): 43%
- residual activity (ROCK2 (rat); compound 0.1 µM): 90%
- residual activity (ROCK2 (rat); compound 1.0 µM): 82%
- residual activity (ROCK2 (rat); compound 10.0 µM): 63%
- residual activity (MAP2K1 (human); compound 0.1 µM): 96%
- residual activity (MAP2K1 (human); compound 1.0 µM): 85%
- residual activity (MAP2K1 (human); compound 10.0 µM): 40%
- residual activity (CaMK1 (human); compound 0.1 µM): 62%
- residual activity (CaMK1 (human); compound 1.0 µM): 59%
- residual activity (CaMK1 (human); compound 10.0 µM): 11%
- residual activity (MST4 (human); compound 0.1 µM): 50%
- residual activity (MST4 (human); compound 1.0 µM): 50%
- residual activity (MST4 (human); compound 10.0 µM): 17%
SMILES: Cc1ccc(Sc2cnc(Nc3cccc(Br)n3)s2)cc1C(=O)N1CCN(C(=O)CN)CC1
